Structures can show the parent of a compound that is named as a salt. Where two headings read alike, the source gives them in different places.
Target: T1, Cav2.2 (Homo sapiens, UniProt Q00975)
T1 construct: expressed in transfected cells; host or cells: HEK-293T/17 (transient, FuGENE 6)
Assay: HEK assay (whole-cell patch clamp, transiently transfected HEK-293T/17 cells, pulses P1 and P5)
Type: cell-based
Details: holding potential −100 mV
Protocol: HEK-293T/17 cells were transiently transfected in a similar manner as described in FuGENE 6 Package Insert Version 7, April 2002, Roche Applied Science, Indianapolis, Ind. The cells were plated at 2.5×10^5 cells in 2 mL in a 6-well plate, incubated for one night, and achieved a ˜30-40% confluence. In a small sterile tube, sufficient serum-free medium was added as diluent for FuGENE Transfection Reagent (Roche Applied Science, Indianapolis, Ind.) to a total volume of 100 μL. To this medium was added 3 μL of FuGENE 6 Reagent. The mixture was tapped gently to mix. To the prediluted FuGENE 6 Reagent was added 2 μg of DNA solution (0.8-2.0 μg/μL). The DNA/Fugene 6 mixture was gently pipeted to mix the contents and incubated for about 15 minutes at room temperature. The complex mixture was then added to the HEK-293T/17 cells, distributed around the well, and swirled to ensure even dispersal. The cells were returned to the incubator for 24 hours. The transfected cells were then replated at density 2.5×10^5 in a 35 mm dish with 5 glass coverslips and grew in low serum (1%) media for 24 hours. Coverslips with isolated cells were then transferred into a chamber, and calcium channel (e.g., L-type, N-type, etc.) current or other currents for counter screening were recorded from the transiently transfected HEK-293T/17 cells.
The whole-cell voltage clamp configuration of the patch clamp technique was employed to evaluate voltage-dependent calcium currents essentially as described by Thompson and Wong (1991), J. Physiol., 439: 671-689, the entire disclosure of which is herein incorporated by reference. To record calcium channel (e.g., L-type, N-type, etc.) currents for evaluation of inhibitory potency of compounds (steady-state concentration-response analysis), five pulses of 20-30 ms voltage steps to about +10 mV (the peak of the current voltage relationship) were delivered at five Hz every 30 second from a holding potential at −100 mV. In order to obtain an estimate of the degree of use-dependent block of the test compounds, IC50 values were determined at the first and fifth pulse of the train (P1 and P5, respectively, in Table 2). Compound evaluations were carried out essentially as described by Sah D. W. and Bean B. P. (1994), Mol. Pharmacol., 45:84-92, the entire disclosure of which is herein incorporated by reference.

[1] = fifth pulse (P5) of 5 Hz train, read-out: HEK Cav2.2 P5 IC50
[2] = first pulse (P1) of 5 Hz train, read-out: HEK Cav2.2 P1 IC50

T1 sequence (Q00975 whole entry): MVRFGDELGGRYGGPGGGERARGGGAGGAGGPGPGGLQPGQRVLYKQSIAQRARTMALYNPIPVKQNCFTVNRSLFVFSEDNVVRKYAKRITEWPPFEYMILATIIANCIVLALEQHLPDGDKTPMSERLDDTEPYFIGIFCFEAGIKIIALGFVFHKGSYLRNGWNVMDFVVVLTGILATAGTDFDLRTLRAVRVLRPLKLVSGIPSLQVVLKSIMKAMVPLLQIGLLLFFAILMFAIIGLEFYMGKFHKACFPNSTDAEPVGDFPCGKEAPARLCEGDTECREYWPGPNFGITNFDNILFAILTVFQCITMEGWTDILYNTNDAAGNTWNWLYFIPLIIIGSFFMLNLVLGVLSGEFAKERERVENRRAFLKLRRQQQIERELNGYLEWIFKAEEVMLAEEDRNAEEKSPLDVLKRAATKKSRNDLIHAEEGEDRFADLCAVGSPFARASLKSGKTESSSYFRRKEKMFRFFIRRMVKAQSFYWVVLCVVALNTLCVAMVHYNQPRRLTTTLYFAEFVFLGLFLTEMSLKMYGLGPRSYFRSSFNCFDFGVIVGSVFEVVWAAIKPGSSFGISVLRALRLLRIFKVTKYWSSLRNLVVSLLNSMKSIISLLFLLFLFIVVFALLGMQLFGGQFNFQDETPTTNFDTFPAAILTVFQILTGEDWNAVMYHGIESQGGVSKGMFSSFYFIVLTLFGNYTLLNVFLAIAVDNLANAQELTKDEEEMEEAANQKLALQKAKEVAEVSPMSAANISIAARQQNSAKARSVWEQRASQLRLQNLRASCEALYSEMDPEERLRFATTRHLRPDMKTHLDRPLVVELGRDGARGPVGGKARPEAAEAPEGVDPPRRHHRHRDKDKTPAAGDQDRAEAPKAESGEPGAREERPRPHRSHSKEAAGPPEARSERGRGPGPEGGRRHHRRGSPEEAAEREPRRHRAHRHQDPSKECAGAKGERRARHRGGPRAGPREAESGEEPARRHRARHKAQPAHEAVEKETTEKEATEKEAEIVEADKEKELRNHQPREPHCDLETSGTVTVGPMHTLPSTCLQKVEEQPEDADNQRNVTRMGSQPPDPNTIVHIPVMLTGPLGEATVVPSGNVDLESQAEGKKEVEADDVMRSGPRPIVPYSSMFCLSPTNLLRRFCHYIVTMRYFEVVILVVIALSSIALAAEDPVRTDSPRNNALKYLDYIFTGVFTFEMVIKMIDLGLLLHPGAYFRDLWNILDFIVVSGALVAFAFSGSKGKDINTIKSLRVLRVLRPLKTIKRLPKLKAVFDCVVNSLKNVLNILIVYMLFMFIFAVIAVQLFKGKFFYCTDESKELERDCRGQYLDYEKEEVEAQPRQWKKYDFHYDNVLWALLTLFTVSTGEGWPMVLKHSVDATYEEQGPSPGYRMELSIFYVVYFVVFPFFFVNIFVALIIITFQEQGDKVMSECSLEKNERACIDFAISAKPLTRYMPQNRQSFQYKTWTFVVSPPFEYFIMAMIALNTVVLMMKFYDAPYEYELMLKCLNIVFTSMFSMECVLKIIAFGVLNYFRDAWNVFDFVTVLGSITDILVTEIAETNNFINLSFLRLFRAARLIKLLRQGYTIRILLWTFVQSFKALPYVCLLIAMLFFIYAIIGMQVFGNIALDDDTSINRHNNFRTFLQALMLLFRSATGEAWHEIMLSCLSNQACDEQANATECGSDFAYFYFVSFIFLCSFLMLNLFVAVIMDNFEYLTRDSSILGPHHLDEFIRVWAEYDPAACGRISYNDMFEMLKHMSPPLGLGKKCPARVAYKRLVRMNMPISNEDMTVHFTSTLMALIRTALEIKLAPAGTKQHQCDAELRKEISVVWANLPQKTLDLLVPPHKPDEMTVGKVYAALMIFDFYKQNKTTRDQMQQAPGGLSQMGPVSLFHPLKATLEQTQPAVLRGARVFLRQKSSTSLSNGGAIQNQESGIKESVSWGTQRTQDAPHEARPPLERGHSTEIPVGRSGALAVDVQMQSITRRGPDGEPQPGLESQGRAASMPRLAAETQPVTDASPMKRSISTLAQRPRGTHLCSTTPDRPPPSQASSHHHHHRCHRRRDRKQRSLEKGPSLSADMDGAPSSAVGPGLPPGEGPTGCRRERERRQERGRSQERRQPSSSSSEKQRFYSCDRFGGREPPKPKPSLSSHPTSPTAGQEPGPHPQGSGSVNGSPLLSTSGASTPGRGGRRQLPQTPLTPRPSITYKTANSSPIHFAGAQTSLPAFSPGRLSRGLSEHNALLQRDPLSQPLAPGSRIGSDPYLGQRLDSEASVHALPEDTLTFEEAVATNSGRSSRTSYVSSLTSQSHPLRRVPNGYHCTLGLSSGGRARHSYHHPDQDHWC
T1 sequence (P54284 whole entry partner): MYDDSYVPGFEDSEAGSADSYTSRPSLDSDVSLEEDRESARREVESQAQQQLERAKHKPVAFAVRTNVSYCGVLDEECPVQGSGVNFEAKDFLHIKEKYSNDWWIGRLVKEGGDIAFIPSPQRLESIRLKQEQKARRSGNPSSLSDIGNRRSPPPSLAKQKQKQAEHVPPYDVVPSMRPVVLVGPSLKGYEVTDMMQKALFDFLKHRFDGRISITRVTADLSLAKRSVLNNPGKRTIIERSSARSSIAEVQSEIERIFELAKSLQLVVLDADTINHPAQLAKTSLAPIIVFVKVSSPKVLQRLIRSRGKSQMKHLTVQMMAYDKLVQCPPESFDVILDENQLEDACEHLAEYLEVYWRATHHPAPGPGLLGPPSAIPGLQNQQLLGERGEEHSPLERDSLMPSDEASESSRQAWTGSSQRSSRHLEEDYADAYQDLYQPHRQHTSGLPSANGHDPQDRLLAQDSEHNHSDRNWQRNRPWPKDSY
T1 sequence (P54289 25-946 partner limits assumed): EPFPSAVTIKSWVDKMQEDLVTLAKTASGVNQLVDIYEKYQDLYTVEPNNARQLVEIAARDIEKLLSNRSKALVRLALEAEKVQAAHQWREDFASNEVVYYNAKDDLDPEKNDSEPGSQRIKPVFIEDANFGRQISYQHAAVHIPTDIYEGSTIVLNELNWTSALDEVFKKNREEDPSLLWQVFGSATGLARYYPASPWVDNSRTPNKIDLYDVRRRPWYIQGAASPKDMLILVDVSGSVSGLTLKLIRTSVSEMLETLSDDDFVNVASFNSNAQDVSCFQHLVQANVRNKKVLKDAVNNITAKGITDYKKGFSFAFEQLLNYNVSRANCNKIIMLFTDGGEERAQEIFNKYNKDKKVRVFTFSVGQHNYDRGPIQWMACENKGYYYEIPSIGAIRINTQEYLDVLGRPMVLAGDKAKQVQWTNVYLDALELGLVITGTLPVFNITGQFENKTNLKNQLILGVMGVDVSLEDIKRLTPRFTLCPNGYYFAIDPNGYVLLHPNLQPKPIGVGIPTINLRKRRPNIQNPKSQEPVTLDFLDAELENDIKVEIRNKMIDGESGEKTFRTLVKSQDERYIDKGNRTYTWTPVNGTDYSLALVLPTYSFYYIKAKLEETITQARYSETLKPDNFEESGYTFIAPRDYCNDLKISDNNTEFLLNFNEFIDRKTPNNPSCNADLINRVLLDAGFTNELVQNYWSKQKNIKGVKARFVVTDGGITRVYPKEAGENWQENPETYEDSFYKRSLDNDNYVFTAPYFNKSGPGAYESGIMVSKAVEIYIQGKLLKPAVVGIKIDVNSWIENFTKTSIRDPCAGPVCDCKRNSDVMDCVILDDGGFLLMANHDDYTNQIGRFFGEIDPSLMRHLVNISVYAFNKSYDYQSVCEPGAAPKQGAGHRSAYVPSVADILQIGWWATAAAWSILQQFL
T1 sequence (P54289 947-1103 partner limits assumed): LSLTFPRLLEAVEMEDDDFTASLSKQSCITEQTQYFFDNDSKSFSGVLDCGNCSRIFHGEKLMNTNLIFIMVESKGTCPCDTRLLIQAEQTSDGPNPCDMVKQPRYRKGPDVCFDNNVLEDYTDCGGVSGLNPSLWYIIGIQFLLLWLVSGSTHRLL

Row | SMILES | IC50 [1] | IC50 [2]
1 | CC(C)(C)C(=O)N(Cc1ccc(N2CC[C@H](Oc3ccccn3)C2)nc1)c1ccc(F)cc1 (stereo in doubt) [Compound 50, N-(4-Fluorophenyl)-2,2-dimethyl-N-{6-[3-(pyridin-2-yloxy)-pyrrolidin-1-yl]-pyridin-3-ylmethyl}-propionamide] | 0.8 µM | 3.7 µM
2 | CC(C)(C)C(=O)N(Cc1cnc(N2CCCC2)s1)c1ccc(F)cc1 [Compound 1, N-(4-fluorophenyl)-2,2-dimethyl-N-(2-pyrrolidin-1-yl-thiazol-5-ylmethyl)-propionamide hydrochloride] | 8.3 µM | 20.3 µM
3 | CCN(CC)c1cccc(CN(C(=O)C(C)(C)C)c2ccc(F)cc2)n1 [Compound 4, N-(6-diethylamino-pyridin-2-ylmethyl)-N-(4-fluorophenyl)-2,2-dimethyl-propionamide hydrochloride] | 0.8 µM | 2.9 µM
4 | CCN(CC)c1ccc(CN(C(=O)C(C)(C)C)c2ccc(F)cc2)cc1 [Compound 5, N-(4-Diethylaminobenzyl)-N-(4-fluorophenyl)-2,2-dimethyl-propionamide hydrochloride] | 1.1 µM | 2.9 µM
5 | CCN(c1cccc(CN(C(=O)C(C)(C)C)c2ccc(F)cc2)c1)C1CC1 [Compound 6, N-(3-(Cyclopropyl(ethyl)amino)-benzyl)-N-(4-fluorophenyl)-2,2-dimethyl-propionamide hydrochloride] | 1.5 µM | 6.2 µM
6 | CCN(c1ccc(CN(C(=O)C2CCN(Cc3ccccc3)CC2)c2ccc(F)cc2)cn1)C1CC1 [Compound 12, 1-benzyl-piperidine-4-carboxylic acid [6-(Cyclopropyl(ethyl)amino)-pyridin-3-ylmethyl]-(4-fluorophenyl)-amide dihydrochloride] | 0.4 µM | 1 µM
7 | CCN(c1ccc(CN(C(=O)CCC(C)C)c2ccc(F)cc2)cn1)C1CC1 [Compound 13, 4-methyl-pentanoic acid [6-(Cyclopropyl(ethyl)amino)-pyridin-3-ylmethyl]-(4-fluorophenyl)-amide hydrochloride] | 1.8 µM | –
8 | CCN(c1ccc(CN(C(=O)C2Cc3ccccc3CN2)c2ccc(F)cc2)cn1)C1CC1 (stereo not shown) [Compound 14, 1,2,3,4-tetrahydro-isoquinoline-3-carboxylic acid [6-(Cyclopropyl(ethyl)amino)-pyridin-3-ylmethyl]-(4-fluorophenyl)-amide dihydrochloride] | 0.6 µM | 10.1 µM
9 | CCN(c1ccc(CN(C(=O)C2Cc3ccccc3CN2C)c2ccc(F)cc2)cn1)C1CC1 (stereo not shown) [Compound 15, 2-methyl-1,2,3,4-tetrahydro-isoquinoline-3-carboxylic acid [6-(Cyclopropyl(ethyl)amino)-pyridin-3-ylmethyl]-(4-fluorophenyl)-amide dihydrochloride] | 0.4 µM | 2.1 µM
10 | CC(CC(=O)N(Cc1ccc(N(C)CCc2ccccn2)nc1)c1ccc(F)cc1)C(F)(F)F (stereo not shown) [Compound 23, 4,4,4-Trifluoro-N-(4-fluorophenyl)-3-methyl-N-{6-[methyl-(2-pyridin-2-yl-ethyl)-amino]-pyridin-3-ylmethyl}-butyramide] | 1.1 µM | –
11 | CCN(CC)c1ccc(CN(C(=O)C(C)(C)C)c2ccc(F)cc2C)cn1 [Compound 36, N-(6-Diethylamino-pyridin-3-ylmethyl)-N-(4-fluoro-2-methyl-phenyl)-2,2-dimethyl-propionamide] | 1.3 µM | 3.5 µM
12 | CCN(CC)c1ccc(CN(C(=O)C(C)(C)C)c2ccccc2C(C)C)cn1 [Compound 37, N-(6-Diethylamino-pyridin-3-ylmethyl)-N-(2-isopropyl-phenyl)-2,2-dimethyl-propionamide] | 0.7 µM | 1.8 µM
13 | CN(CCO)c1ccc(CN(C(=O)C(C)(C)C)c2ccc(F)cc2)cn1 [Compound 38, N-(4-Fluorophenyl)-N-{6-[(2-hydroxy-ethyl)-methyl-amino]-pyridin-3-ylmethyl}-2,2-dimethyl-propionamide] | 7.6 µM | 17.1 µM
14 | Cc1ccc(OCCN(C)c2ccc(CN(C(=O)C(C)(C)C)c3ccc(F)cc3)cn2)nc1 [Compound 39, N-(4-Fluorophenyl)-2,2-dimethyl-N-(6-{methyl-[2-(5-methyl-pyridin-2-yloxy)-ethyl]-amino}-pyridin-3-ylmethyl)-propionamide] | 0.5 µM | 1 µM
15 | Cc1ccc(OCCN(C)c2ccc(CN(C(=O)C(C)(C)C)c3ccc(F)cc3)cn2)nn1 [Compound 40, N-(4-Fluorophenyl)-2,2-dimethyl-N-(6-{methyl-[2-(6-methyl-pyridazin-3-yloxy)-ethyl]-amino}-pyridin-3-ylmethyl)-propionamide] | 11.2 µM | 21 µM
16 | CCN(Cc1ccncc1)c1ccc(CN(C(=O)C(C)(C)C)c2ccc(F)cc2)cn1 [Compound 41, N-[6-(Ethyl-pyridin-4-ylmethyl-amino)-pyridin-3-ylmethyl]-N-(4-fluorophenyl)-2,2-dimethyl-propionamide] | 2 µM | 6.3 µM
17 | CC(C)(C)C(=O)N(Cc1ccc(N2CCCC2)nc1)c1ccc(F)cc1 [Compound 42, N-(4-Fluorophenyl)-2,2-dimethyl-N-(6-pyrrolidin-1-yl-pyridin-3-ylmethyl)-propionamide] | 7.4 µM | 11.6 µM
18 | CCC(C)(C)C(=O)N(Cc1ccc(N2CCN(S(C)(=O)=O)CC2)nc1)c1ccc(F)cc1 [Compound 43, N-(4-Fluorophenyl)-N-[6-(4-methanesulfonyl-piperazin-1-yl)-pyridin-3-ylmethyl]-2,2-dimethyl-butyramide] | 3 µM | 10.2 µM
19 | CC(=O)N1CCN(c2ccc(CN(C(=O)C(C)(C)C)c3ccc(F)cc3)cn2)CC1 [Compound 44, N-[6-(4-Acetyl-piperazin-1-yl)-pyridin-3-ylmethyl]-N-(4-fluorophenyl)-2,2-dimethyl-propionamide] | 7.5 µM | 18.4 µM
20 | CCOC(=O)c1cn(C(C)(C)C(=O)N(Cc2ccc(N(CC)CC)nc2)c2ccc(F)cc2)nn1 [Compound 45, 1-{1-[(6-Diethylamino-pyridin-3-ylmethyl)-(4-fluorophenyl)-carbamoyl]-1-methyl-ethyl}-1H-[1,2,3]triazole-4-carboxylic acid ethyl ester] | 2.5 µM | 10.6 µM
21 | CN(CCOCc1cccnc1)c1ccc(CN(C(=O)C(C)(C)C)c2ccc(F)cc2)cn1 [Compound 47, N-(4-Fluorophenyl)-2,2-dimethyl-N-(6-{methyl-[2-(pyridin-3-ylmethoxy)-ethyl]-amino}-pyridin-3-ylmethyl)-propionamide] | 1.6 µM | 9.5 µM
22 | CC(C)(C)C(=O)N(Cc1ccc(N2CCCC2CO)nc1)c1ccc(F)cc1 (stereo not shown) [Compound 48, N-(4-Fluorophenyl)-N-[6-(2-hydroxymethyl-pyrrolidin-1-yl)-pyridin-3-ylmethyl]-2,2-dimethyl-propionamide] | 4.2 µM | 19.8 µM
23 | CC(C)(C)C(=O)N(Cc1ccc(N2CCC[C@H]2COc2ccccn2)nc1)c1ccc(F)cc1 [Compound 49, N-(4-Fluorophenyl)-2,2-dimethyl-N-{6-[2-(pyridin-2-yloxymethyl)-pyrrolidin-1-yl]-pyridin-3-ylmethyl}-propionamide] | 0.6 µM | 2.3 µM
24 | CC(C)(C)C(=O)N(Cc1ccc(N2CC[C@H](O)C2)nc1)c1ccc(F)cc1 [Compound 51, N-(4-Fluorophenyl)-N-[6-(3-hydroxy-pyrrolidin-1-yl)-pyridin-3-ylmethyl]-2,2-dimethyl-propionamide] | 12.8 µM | 34 µM
25 | CCN(CC)C1CCN(c2ccc(CN(C(=O)C(C)(C)C)c3ccc(F)cc3)cn2)C1 (stereo not shown) [Compound 52, N-[6-(3-Diethylamino-pyrrolidin-1-yl)-pyridin-3-ylmethyl]-N-(4-fluorophenyl)-2,2-dimethyl-propionamide] | 6.3 µM | 17.1 µM
26 | CC(C)(C)C(=O)N(Cc1ccc(N2CCC(c3nc4ccccc4[nH]3)CC2)nc1)c1ccc(F)cc1 [Compound 53, N-[4-(1H-Benzoimidazol-2-yl)-3,4,5,6-tetrahydro-2H-[1,2′]bipyridinyl-5′-ylmethyl]-N-(4-fluorophenyl)-2,2-dimethyl-propionamide] | 0.3 µM | 0.6 µM
27 | CCN(CC)c1ccc(CN(C(=O)C(C)(C)n2cc(CN(C)C)nn2)c2ccc(F)cc2)cn1 [Compound 54, N-(6-Diethylamino-pyridin-3-ylmethyl)-2-(4-dimethylaminomethyl-[1,2,3]triazol-1-yl)-N-(4-fluorophenyl)-isobutyramide] | 5.3 µM | 8.9 µM

Source: patent publication US20100267697A1, “ION CHANNEL MODULATORS” (Wyeth, priority 2006, published 2010)
